Series [1] concerns CQ-resistant P. falciparum strain FcB1. The following applies: cited from earlier work.
The subject of series [2] is CQ-resistant Dd2 strain of P. falciparum. Nature of the series: In vitro growth inhibition of P. falciparum Dd2 ([3H]-hypoxanthine incorporation). The series is classed as cell-based, Plasmodium falciparum. To be noted: for IC50: Plasmodium falciparum, CQ-resistant Dd2, mean +/− SD of at least three independent experiments; for Selectivity Index (IC50 AB943/IC50 Dd2): ratio of cytotoxicity IC50 to antiplasmodial IC50 (Dd2). The procedure:
(§1) The chloroquine-resistant FcB1/Colombia and Dd2/Indochina strains of Plasmodium falciparum were obtained from the Protist Collection of the National Museum of Natural History, Paris, France (n° MNHN-CEU-2016-224-PfFCB1 and MNHN-CEU-2016-222-PfDD2). The parasites were maintained in vitro on human erythrocytes in RPMI 1640 medium supplemented by 8% (v/v) heat-inactivated human serum, at 37 °C, under an atmosphere of 5% CO2. The human red blood cells and serum were provided by the Établissement Français du Sang under the C-CPSL-UNT approval no. 13/EFS/126. The in vitro drug susceptibility assays were measured by [^3H]-hypoxanthine incorporation, as previously described. The drug stock solutions were prepared in DMSO. Briefly, the assays were performed in 96-well plates. The compounds were diluted in the culture medium (100 μL per well). The parasite cultures (100 μL, 2% parasitaemia, and 1% final hematocrit) were then added to each well and incubated for 24 h at 37 °C prior to the addition of 0.5 μCi of [^3H]- hypoxanthine (GE Healthcare, Paris, France, 1 to 5 Ci·mmol/mL) per well. After a further incubation of 24 h, the plates were frozen and thawed. The cell lysates were then collected onto fiberglass filters and counted in a liquid scintillation spectrometer. The growth inhibition for each drug concentration was determined through a comparison of the radioactivity incorporated in the treated culture with that in the control culture maintained on the same plate. The drugs were first evaluated for a range of fixed concentrations of 50, 5, 0.5, 0.05, and 0.005 μg/mL. […] The IC50 value was obtained from the drug concentration–response curve, and the results were expressed in μM or nM as the mean values ± standard deviations determined from several independent experiments. Artesunate (46) was used as an antimalarial drug control.

Series [3] concerns P. falciparum parasite strains (3D7, Dd2, and K1). Also on record: method as in PMID 31290221. To be noted: range over 3D7, Dd2 and K1 strains; cited from earlier work.
Series [4] deals with CQ-resistant P. falciparum FcB1 strain. Nature of the series: In vitro growth inhibition of P. falciparum FcB1 ([3H]-hypoxanthine incorporation). The series is classed as cell-based, Plasmodium falciparum. To be noted: for IC50: Plasmodium falciparum; for Selectivity Index (IC50 AB943/IC50 FcB1): ratio of cytotoxicity IC50 to antiplasmodial IC50 (FcB1). As to the method: as §1

Series [5] deals with human primary fibroblasts AB943. As to the kind of experiment: Cytotoxicity upon human primary fibroblasts AB943 (resazurin). The series is classed as cell-based. The following applies: Fibroblast, 72 h, mean +/− SD of at least three independent experiments. As to the method:
A cellular cytotoxicity evaluation was performed upon human primary fibroblasts AB943, as previously described. The assays were realized in 96-well plates in DMEM + Glutamax without phenol red medium containing 25 mM HEPES, a pH of 7.3, and 10% of fetal calf serum under a 5% CO2 atmosphere, at 37 °C. After trypsin treatment, the AB943 cells were seeded at 2000 cells per well in 100 μL. After 24 h of incubation, drugs diluted in the culture medium were added (100 μL per well). The drug stock solutions were prepared in dimethyl sulfoxide (DMSO). The final DMSO concentration in the cultures remained below 1%. Control cultures were constituted of cultures treated with DMSO instead of the drug. The cytotoxicity assay was based on the conversion of a redo-sensitive dye (resazurin) to a fluorescent product via viable cells. After 72 h of incubation, the resazurin solution was added in each well at a final concentration of 45 μM. The fluorescence was measured at 530 nm excitation and 590 nm emission wavelengths after 4 h of incubation. The percentage of the inhibition of cell growth was calculated by comparing the fluorescence of cells maintained in the presence of the drug to that in the absence of the drug. The concentration causing 50% growth inhibition (IC50) was obtained from the drug concentration–response curve, and the results were expressed as the mean values ± standard deviations determined from several experiments.

Another series deals with 3D7 strain. More on the design: method as in PMID 30023664. To be noted: cited from earlier work.
The test system of the next series is 3D7 P. falciparum strain. Also on record: method as in PMID 32676153. The following applies: cited from earlier work.
The test system of series [6] is mammalian and bacterial systems. More on the design: method as in PMID 32676153. The following applies: cited from earlier work.
The next series has as its system W2 P. falciparum strain. More on the design: method as in PMID 32676153. The following applies: cited from earlier work.
Setting [7] is: FCB1, CQ-resistant FcB1, mean +/− standard deviation of independent experiments (at least four in Tables 1-2, at least three in Tables 3-4).

Bounds are passed on as bounds.

These results are taken from paper PMC10886162, “Synthesis of Novel Artemisinin, Ciprofloxacin, and Norfloxacin Hybrids with Potent Antiplasmodial Activity” (Antibiotics, 2024).

In general, IC50 refers to the concentration at which inhibition is half-maximal. Usually EC50 stands for the midpoint of the concentration-response curve. The term melting point denotes the temperature, or range, at which the solid turns liquid.

As for `C[C@@H]1CC[C@H]2[C@@H](C)C(=O)O[C@@H]3O[C@@]4(C)CC[C@@H]1[C@]32OO4` [ART, artemisinin], in [1], the IC50 is 55 ± 13.6 nM.
In the case of `C[C@H]1[C@H](OC(=O)CCC(=O)O)O[C@@H]2O[C@@]3(C)CC[C@H]4[C@H](C)CC[C@@H]1[C@@]24OO3` [AS (46), artesunate, reference compound], the IC50 in series [2] is 41.9 nM; in series [4] (setting [7]), 18.5 nM; in series [4] (FCB1, Table 5, single compound (hybrid or AS alone)), 4.5 nM; in [5], greater than 130000 nM. Moreover, the “Selectivity Index (IC50 AB943/IC50 Dd2)” value in series [2] is recorded as greater than 3104. Further, the EC50 in series [3] was 5.2 to 14.4 nM. Besides, in series [4], the “Selectivity Index (IC50 AB943/IC50 FcB1)” value is reported as greater than 7042.
Take `CCN(CC)CCCC(C)Nc1ccnc2cc(Cl)ccc12` (stereo not drawn) [CQ, chloroquine]: in the series on 3D7 strain, the EC50 is 9.8 ± 2.8 nM.
Compound `C[C@@H]1CCC2[C@@H](C)[C@@H](CC(=O)N3CCN(c4cc5c(cc4F)c(=O)c(C(=O)N4CCN(c6ccnc7cc(Cl)ccc67)CC4)cn5C4CC4)CC3)O[C@@H]3O[C@@]4(C)CCC1[C@@]23OO4` (stereo partly drawn) [Compound 25, 3-(4-(7-chloroquinolin-4-yl)piperazine-1-carbonyl)-1-cyclopropyl-6-fluoro-7-(4-(2-((3R,6R,9R,10R,12R,12aR)-3,6,9-trimethyldecahydro-12H-3,12-epoxy[1,2]dioxepino[4,3-i]isochromen-10-yl)acetyl)piperazin-1-yl)quinolin-4(1H)-one] registered a melting point of 160.2 to 161.3 °C. For the same compound, in series [2], the IC50 came out at 17.7 nM and the “Selectivity Index (IC50 AB943/IC50 Dd2)” value came to 220. Further, the IC50 in series [4] (setting [7]) turned out to be 7.5 nM. In addition, in [4], the “Selectivity Index (IC50 AB943/IC50 FcB1)” value was 521. For the same compound, in [5], the IC50 was 3900 nM.
Turning to `C[C@@H]1CCC2[C@@H](C)[C@@H](CCC(=O)N3CCN(c4cc5c(cc4F)c(=O)c(C(=O)N4CCN(c6ccnc7cc(Cl)ccc67)CC4)cn5C4CC4)CC3)O[C@@H]3O[C@@]4(C)CCC1[C@@]23OO4` (stereo partly drawn) [Compound 26, 3-(4-(7-chloroquinolin-4-yl)piperazine-1-carbonyl)-1-cyclopropyl-6-fluoro-7-(4-(3-((3R,6R,9R,10R,12R,12aR)-3,6,9-trimethyldecahydro-12H-3,12-epoxy[1,2]dioxepino[4,3-i]isochromen-10-yl)propanoyl)piperazin-1-yl)quinolin-4(1H)-one], the melting point fell in the range of 115 to 116 °C. Further, in series [2], the IC50 was 41.5 nM and the “Selectivity Index (IC50 AB943/IC50 Dd2)” value was found to be 880. Moreover, the IC50 in series [4] (setting [7]) came to 13.7 nM. In [4], the “Selectivity Index (IC50 AB943/IC50 FcB1)” value stood at 2668. Moreover, inhibition in [5] was half-maximal at 36500 nM (IC50).
Turning to `C[C@@H]1CCC2[C@@H](C)[C@H](OC(=O)CCC(=O)N3CCN(c4cc5c(cc4F)c(=O)c(C(=O)N4CCN(c6ccnc7cc(Cl)ccc67)CC4)cn5C4CC4)CC3)O[C@@H]3O[C@@]4(C)CCC1[C@@]23OO4` (stereo partly drawn) [Compound 28, (3R,6R,9R,10S,12R,12aR)-3,6,9-trimethyldecahydro-12H-3,12-epoxy[1,2]dioxepino[4,3-i]isochromen-10-yl 4-(4-(3-(4-(7-chloroquinolin-4-yl)piperazine-1-carbonyl)-1-cyclopropyl-6-fluoro-4-oxo-1,4-dihydroquinolin-7-yl)piperazin-1-yl)-4-oxobutanoate], the melting point was in the range of 157 to 158.2 °C. Further, in series [2], the 50% inhibitory concentration (IC50) was 12.4 nM and the “Selectivity Index (IC50 AB943/IC50 Dd2)” value stood at 1582. The IC50 in series [4] (setting [7]) worked out at 4.9 nM. Moreover, the “Selectivity Index (IC50 AB943/IC50 FcB1)” value in series [4] was determined as 4046. The compound also had an IC50 in series [5] of 19600 nM.
`CCn1cc(C(=O)N2CCN(c3ccnc4cc(Cl)ccc34)CC2)c(=O)c2cc(F)c(N3CCN(C(=O)CCC(=O)O[C@@H]4O[C@@H]5O[C@@]6(C)CCC7[C@H](C)CCC([C@H]4C)[C@]75OO6)CC3)cc21` (stereo partly drawn) [Compound 29, (3R,6R,9R,10S,12R,12aR)-3,6,9-trimethyldecahydro-12H-3,12-epoxy[1,2]dioxepino[4,3-i]isochromen-10-yl 4-(4-(3-(4-(7-chloroquinolin-4-yl)piperazine-1-carbonyl)-1-ethyl-6-fluoro-4-oxo-1,4-dihydroquinolin-7-yl)piperazin-1-yl)-4-oxobutanoate] had a melting point of 168.7 to 169.6 °C. In series [2], the 50% inhibitory concentration (IC50) is 18.2 nM and the “Selectivity Index (IC50 AB943/IC50 Dd2)” value stood at 1658. Also, the IC50 in series [4] (setting [7]) was 5 nM. For the same compound, the “Selectivity Index (IC50 AB943/IC50 FcB1)” value in [4] is recorded as 6027. Further, the midpoint of inhibition in series [5], the IC50, lay at 30300 nM.
Turning to `C[C@H]1[C@@H](O)O[C@@H]2O[C@@]3(C)CC[C@H]4[C@H](C)CC[C@@H]1[C@@]24OO3` [DHA, dihydroartemisinin], the EC50 in the series on 3D7 strain is 2.4 ± 0.4 nM.
On to `CC1CCC2C(C)C(OC(=O)CCC(=O)OCCNc3ccc4ncnc(Nc5ccc(Cl)c(Cl)c5)c4c3)OC3OC4(C)CCC1C32OO4` (stereo not drawn) [hybrid 3], for which the EC50 in the series on 3D7 strain was 1.4 ± 0.4 nM.
Turning to `CC1CCC2C(C)C(OC(=O)CCC(=O)OCCNc3ccnc4cc(Cl)ccc34)OC3OC4(C)CCC1C32OO4` (stereo not drawn) [hybrid 4], in [3], the EC50 is 1.7 to 4.5 nM.
As for `CCOC(=O)c1cn(C2CC2)c2cc(N3CCN(c4ccnc5cc(Cl)ccc45)CC3)c(F)cc2c1=O` [hybrid 10], the results for the IC50 in the series with 3D7 P. falciparum strain and in the series with W2 P. falciparum strain were 63.2 ± 1.2 nM and 25.5 ± 4.45 nM, respectively. In addition, the “toxicity to mammalian and bacterial systems” value in [6] is on record as “nontoxic”.
